# Assay results reported in patent publication US12077503B2, “Substituted cyclic amides and their use as herbicides” (FMC CORPORATION, priority 2015, dated 2024).
# How the values were obtained:
# Format in all cases: in vivo
# [1] = test system: barnyardgrass (Echinochloa crus-galli); assay: Test G Pre-Emergence Protocol; conditions: Echinochloa crus-galli, pre-emergence, 312 h, evaluated after 13 days; for pest or weed control at 15.625 g/ha: 15.625 g ai/ha, read-out: Barnyard grass damage rating (100=total damage to plant; 0=no damage to plant); for pest or weed control at 62.5 g/ha: 62.5 g ai/ha, 100=total damage to plant, 0=no damage to plant, read-out: plant damage rating, Barnyardgrass; for pest or weed control at 250 g/ha: 250 g ai/ha, read-out: Barnyardgrass damage rating (100=total damage to plant; 0=no damage to plant)
# Procedure, shortened: (§1)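 One day after sowing, pots are treated with a spray of test compound formulated in acetone/water 50:50 plus 0.5% Tween 20, giving 15.625, 62.5 or 250 g/ha. Evaluation on a 0–100 damage scale follows 13 days of glasshouse growth.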
# corn (Zea mays) [2] = assay: Test G Pre-Emergence Protocol; conditions: Zea mays, pre-emergence, 312 h, evaluated after 13 days; for plant injury at 15.625 g/ha: 15.625 g ai/ha; for plant injury at 15.625 g/ha / plant injury at 250 g/ha: read-out: Corn damage rating (100=total damage to plant; 0=no damage to plant); for plant injury at 62.5 g/ha: 62.5 g ai/ha, 100=total damage to plant, 0=no damage to plant, read-out: plant damage rating, Corn; for plant injury at 250 g/ha: 250 g ai/ha
# Procedure, shortened: as §1
# [3] = test system: giant foxtail (Setaria faberi); assay: Test G Pre-Emergence Protocol; conditions: Setaria faberi, pre-emergence, 312 h, evaluated after 13 days; for pest or weed control at 15.625 g/ha: 15.625 g ai/ha; for pest or weed control at 15.625 g/ha / pest or weed control at 250 g/ha: read-out: Foxtail, Giant damage rating (100=total damage to plant; 0=no damage to plant); for pest or weed control at 62.5 g/ha: 62.5 g ai/ha, 100=total damage to plant, 0=no damage to plant, read-out: plant damage rating, Foxtail, Giant; for pest or weed control at 250 g/ha: 250 g ai/ha
# Procedure, shortened: as §1
# [4] = test system: ivy-leaved morning glory (Ipomoea hederacea); assay: Test G Pre-Emergence Protocol; conditions: Ipomoea, pre-emergence, 312 h, evaluated after 13 days; for pest or weed control at 15.625 g/ha: 15.625 g ai/ha, read-out: Morning-glory, Ivy-leaved damage rating (100=total damage to plant; 0=no damage to plant); for pest or weed control at 62.5 g/ha: 62.5 g ai/ha, 100=total damage to plant, 0=no damage to plant, read-out: plant damage rating, Morningglory, Ivy-leaved; for pest or weed control at 250 g/ha: 250 g ai/ha, read-out: Morningglory, Ivy-leaved damage rating (100=total damage to plant; 0=no damage to plant)
# Procedure, shortened: as §1
# [5] = test system: redroot pigweed (Amaranthus retroflexus); assay: Test G Pre-Emergence Protocol; conditions: Amaranthus retroflexus, pre-emergence, 312 h, evaluated after 13 days; for pest or weed control at 15.625 g/ha: 15.625 g ai/ha; for pest or weed control at 15.625 g/ha / pest or weed control at 250 g/ha: read-out: Pigweed, Redroot damage rating (100=total damage to plant; 0=no damage to plant); for pest or weed control at 62.5 g/ha: 62.5 g ai/ha, 100=total damage to plant, 0=no damage to plant, read-out: plant damage rating, Pigweed, Redroot; for pest or weed control at 250 g/ha: 250 g ai/ha
# Procedure, shortened: as §1
# [6] = test system: velvetleaf (Abutilon theophrasti); assay: Test G Pre-Emergence Protocol; conditions: Abutilon theophrasti, pre-emergence, 312 h, evaluated after 13 days; for pest or weed control at 15.625 g/ha: 15.625 g ai/ha; for pest or weed control at 15.625 g/ha / pest or weed control at 250 g/ha: read-out: Velvetleaf damage rating (100=total damage to plant; 0=no damage to plant); for pest or weed control at 62.5 g/ha: 62.5 g ai/ha, 100=total damage to plant, 0=no damage to plant, read-out: plant damage rating, Velvetleaf; for pest or weed control at 250 g/ha: 250 g ai/ha
# Procedure, shortened: as §1
# [7] = test system: barnyardgrass (Echinochloa crus-galli); assay: Test G Post-Emergence Protocol; conditions: Echinochloa crus-galli, post-emergence, 312 h; for pest or weed control at 15.625 g/ha: 15.625 g ai/ha, evaluated after 13 days (100=total damage to plant; 0=no damage to plant), read-out: Barnyardgrass damage rating; for pest or weed control at 62.5 g/ha: 62.5 g ai/ha, read-out: Barnyardgrass damage rating (100=total damage to plant; 0=no damage to plant); for pest or weed control at 62.5 g/ha / pest or weed control at 250 g/ha: evaluated after 13 days; for pest or weed control at 250 g/ha: 250 g ai/ha, read-out: damage to plant, Barnyardgrass (100=total damage to plant; 0=no damage to plant)
# Procedure, shortened: (§2)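 Seedlings grown 8 days in soil in a glasshouse (24/16 °C day/night, 14 h light, 65% humidity) were sprayed post-emergence with compound in acetone/water 50:50 plus 0.5% Tween 20 at 15.625, 62.5 or 250 g/ha. Damage was scored after 13 days on a 0–100 scale (100 = total damage).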
# corn (Zea mays) [8] = assay: Test G Post-Emergence Protocol; conditions: Zea mays, post-emergence, 312 h; for plant injury at 15.625 g/ha: 15.625 g ai/ha, evaluated after 13 days (100=total damage to plant; 0=no damage to plant), read-out: Corn damage rating; for plant injury at 62.5 g/ha: 62.5 g ai/ha, read-out: Corn damage rating (100=total damage to plant; 0=no damage to plant); for plant injury at 62.5 g/ha / plant injury at 250 g/ha: evaluated after 13 days; for plant injury at 250 g/ha: 250 g ai/ha, read-out: damage to plant, Corn (100=total damage to plant; 0=no damage to plant)
# Procedure, shortened: as §2
# [9] = test system: giant foxtail (Setaria faberi); assay: Test G Post-Emergence Protocol; conditions: Setaria faberi, post-emergence, 312 h; for pest or weed control at 15.625 g/ha: 15.625 g ai/ha, evaluated after 13 days (100=total damage to plant; 0=no damage to plant), read-out: Foxtail, Giant damage rating; for pest or weed control at 62.5 g/ha: 62.5 g ai/ha, read-out: Foxtail, Giant damage rating (100=total damage to plant; 0=no damage to plant); for pest or weed control at 62.5 g/ha / pest or weed control at 250 g/ha: evaluated after 13 days; for pest or weed control at 250 g/ha: 250 g ai/ha, read-out: damage to plant, Foxtail, Giant (100=total damage to plant; 0=no damage to plant)
# Procedure, shortened: as §2
# [10] = test system: ivy-leaved morning glory (Ipomoea hederacea); assay: Test G Post-Emergence Protocol; conditions: Ipomoea, post-emergence, 312 h; for pest or weed control at 15.625 g/ha: 15.625 g ai/ha, evaluated after 13 days (100=total damage to plant; 0=no damage to plant), read-out: Morningglory, Ivy-leaved damage rating; for pest or weed control at 62.5 g/ha: 62.5 g ai/ha, read-out: Morningglory, Ivy-leaved damage rating (100=total damage to plant; 0=no damage to plant); for pest or weed control at 62.5 g/ha / pest or weed control at 250 g/ha: evaluated after 13 days; for pest or weed control at 250 g/ha: 250 g ai/ha, read-out: damage to plant, Morningglory, Ivy-leaved (100=total damage to plant; 0=no damage to plant)
# Procedure, shortened: as §2
# [11] = test system: redroot pigweed (Amaranthus retroflexus); assay: Test G Post-Emergence Protocol; conditions: Amaranthus retroflexus, post-emergence, 312 h; for pest or weed control at 15.625 g/ha: 15.625 g ai/ha, evaluated after 13 days (100=total damage to plant; 0=no damage to plant), read-out: Pigweed, Redroot damage rating; for pest or weed control at 62.5 g/ha: 62.5 g ai/ha, read-out: Pigweed, Redroot damage rating (100=total damage to plant; 0=no damage to plant); for pest or weed control at 62.5 g/ha / pest or weed control at 250 g/ha: evaluated after 13 days; for pest or weed control at 250 g/ha: 250 g ai/ha, read-out: damage to plant, Pigweed, Redroot (100=total damage to plant; 0=no damage to plant)
# Procedure, shortened: as §2
# [12] = test system: velvetleaf (Abutilon theophrasti); assay: Test G Post-Emergence Protocol; conditions: Abutilon theophrasti, post-emergence, 312 h; for pest or weed control at 15.625 g/ha: 15.625 g ai/ha, evaluated after 13 days (100=total damage to plant; 0=no damage to plant), read-out: Velvetleaf damage rating; for pest or weed control at 62.5 g/ha: 62.5 g ai/ha, read-out: Velvetleaf damage rating (100=total damage to plant; 0=no damage to plant); for pest or weed control at 62.5 g/ha / pest or weed control at 250 g/ha: evaluated after 13 days; for pest or weed control at 250 g/ha: 250 g ai/ha, read-out: damage to plant, Velvetleaf (100=total damage to plant; 0=no damage to plant)
# Procedure, shortened: as §2
SMILES,pest or weed control at 15.625 g/ha [1] [%],pest or weed control at 62.5 g/ha [1] [%],pest or weed control at 250 g/ha [1] [%],plant injury at 15.625 g/ha (corn (Zea mays) [2]) [%],plant injury at 62.5 g/ha (corn (Zea mays) [2]) [%],plant injury at 250 g/ha (corn (Zea mays) [2]) [%],pest or weed control at 15.625 g/ha [3] [%],pest or weed control at 62.5 g/ha [3] [%],pest or weed control at 250 g/ha [3] [%],pest or weed control at 15.625 g/ha [4] [%],pest or weed control at 62.5 g/ha [4] [%],pest or weed control at 250 g/ha [4] [%],pest or weed control at 15.625 g/ha [5] [%],pest or weed control at 62.5 g/ha [5] [%],pest or weed control at 250 g/ha [5] [%],pest or weed control at 15.625 g/ha [6] [%],pest or weed control at 62.5 g/ha [6] [%],pest or weed control at 250 g/ha [6] [%],pest or weed control at 15.625 g/ha [7] [%],pest or weed control at 62.5 g/ha [7] [%],further results
Cc1nc(C(F)(F)F)ccc1NC(=O)[C@@H]1C(=O)N(C)C[C@H]1c1ccc(C(F)(F)F)cc1 (racemic) [Compound 1566],0,0,0,0,0,0,0,0,0,0,0,0,0,0,0,0,0,0,0,10,pest or weed control at 250 g/ha [7]: 20%; plant injury at 15.625 g/ha (corn (Zea mays) [8]): 0%; plant injury at 62.5 g/ha (corn (Zea mays) [8]): 0%; plant injury at 250 g/ha (corn (Zea mays) [8]): 0%; pest or weed control at 15.625 g/ha [9]: 0%; pest or weed control at 62.5 g/ha [9]: 0%; pest or weed control at 250 g/ha [9]: 0%; pest or weed control at 15.625 g/ha [10]: 0%; pest or weed control at 62.5 g/ha [10]: 0%; pest or weed control at 250 g/ha [10]: 0%; pest or weed control at 15.625 g/ha [11]: 0%; pest or weed control at 62.5 g/ha [11]: 0%; pest or weed control at 250 g/ha [11]: 0%; pest or weed control at 15.625 g/ha [12]: 0%; pest or weed control at 62.5 g/ha [12]: 0%; pest or weed control at 250 g/ha [12]: 0%
CN1C[C@@H](c2ccc(C(F)(F)F)cc2)[C@H](C(=O)Nc2cncc(Cl)n2)C1=O (racemic) [Compound 1574],0,0,60,0,0,0,0,0,70,0,0,0,0,0,30,0,0,0,0,0,pest or weed control at 250 g/ha [7]: 40%; plant injury at 15.625 g/ha (corn (Zea mays) [8]): 0%; plant injury at 62.5 g/ha (corn (Zea mays) [8]): 0%; plant injury at 250 g/ha (corn (Zea mays) [8]): 0%; pest or weed control at 15.625 g/ha [9]: 0%; pest or weed control at 62.5 g/ha [9]: 0%; pest or weed control at 250 g/ha [9]: 60%; pest or weed control at 15.625 g/ha [10]: 0%; pest or weed control at 62.5 g/ha [10]: 0%; pest or weed control at 250 g/ha [10]: 40%; pest or weed control at 15.625 g/ha [11]: 0%; pest or weed control at 62.5 g/ha [11]: 0%; pest or weed control at 250 g/ha [11]: 0%; pest or weed control at 15.625 g/ha [12]: 0%; pest or weed control at 62.5 g/ha [12]: 0%; pest or weed control at 250 g/ha [12]: 0%
Cc1cnc(NC(=O)[C@@H]2C(=O)N(C)C[C@H]2c2ccc(C(F)(F)F)cc2)nc1 (racemic) [Compound 1575],0,0,0,0,0,0,0,0,0,0,0,0,0,0,0,0,0,0,0,0,pest or weed control at 250 g/ha [7]: 0%; plant injury at 15.625 g/ha (corn (Zea mays) [8]): 0%; plant injury at 62.5 g/ha (corn (Zea mays) [8]): 0%; plant injury at 250 g/ha (corn (Zea mays) [8]): 0%; pest or weed control at 15.625 g/ha [9]: 0%; pest or weed control at 62.5 g/ha [9]: 0%; pest or weed control at 250 g/ha [9]: 0%; pest or weed control at 15.625 g/ha [10]: 0%; pest or weed control at 62.5 g/ha [10]: 0%; pest or weed control at 250 g/ha [10]: 0%; pest or weed control at 15.625 g/ha [11]: 0%; pest or weed control at 62.5 g/ha [11]: 0%; pest or weed control at 250 g/ha [11]: 0%; pest or weed control at 15.625 g/ha [12]: 0%; pest or weed control at 62.5 g/ha [12]: 0%; pest or weed control at 250 g/ha [12]: 0%
